Reference: patent US8119609B2, “Methods of treating diabetic retinopathy with pericyte apoptosis inhibitors” (Merck Sante, priority 2000, dated 2012)
Where “and” joins values, the source holds several entries; their conditions need not be identical. Equal values may be shown once. Entries after “also recorded” stand apart in the source; their conditions may differ.

Key:
bovine retinal pericytes [1] = test: Determination of ceramides and diacylglycerols (DAG) in pericytes cultured with AGE-methylglyoxal (DAG-kinase, 32P-ATP); type: cell-based; conditions: for % inhibition of the stimulated production of DAG induced by AGE-methylglyoxal / % inhibition of the stimulated production of ceramides induced by AGE-methylglyoxal: two passages
Experimental: The ceramides and diacylglycerols were measured in the pericytes cultured during two passages with […] of AGE-methylglyoxal or their control according to the method described by Preiss et al. (1986). This method is based on the phosphorylation of the ceramides and DAG by purified diacylglycerol kinase (DAG-kinase) from Escherichia coli in the presence of ATP labeled with ^32P on the γ phosphor in accordance with the diagram shown in FIG. 3.
The pericytes (2 or 3 dishes, 6 cm in diameter) were rinsed, recovered by scraping with a rubber policeman in 0.5 ml of water on ice and the dish rinsed by a supplementary 0.5 ml (volume of 1 ml of cell suspension) to which was added 10 μl of a solution of (9,10-^3H)-triacylglycerol at 0.5 μCi/ml.
The total lipids were then extracted by the method of Bligh and Dyer (1959). To this cell suspension (1 ml of PBS) was added 3.75 ml of a chloroform: methanol (2:1, v/v) mixture containing 80 μl of BHT (5 mM) in solution in ethanol. The solutions were then vortexed for 30 seconds and allowed to stand for a minimum of 30 minutes, then 1.25 ml of NaCl (0.9%) and 1.25 ml of chloroform were added to separate the phases. After centrifugation (700 g, 5 minutes), the bottom organic phase was collected and extraction of the aqueous phase was repeated twice with 1.5 ml of chloroform. The lipid extracts were then collected and the chloroform evaporated under a nitrogen stream. The aqueous phase enabled determination of the total proteins by staining with amide black and the organic phase was recovered in an Eppendorf tube then evaporated under nitrogen.
A standard range of ceramides (25 to 2500 ng) and DAG (25 to 25,000 ng) containing the same quantity of tritium-labeled triacylglycerol was prepared in parallel. The lipids were then solubilized in 20 μl of a solution of detergents (7.5% of n-octylglucopyranoside, […] and 1 mM of DETAPAC) by 1 minute of sonication followed by incubation for 15 minutes at ambient temperature. The reaction was started by addition of 50 μl of reaction buffer (imidazole 100 mM, NaCl 100 mM, MgCl2 25 mM, EGTA 2 mM, pH 6.6), 20 μl of a solution of DAG-kinase (4.86 mU) containing 10 mM of DTT and 10 μl of [γ-^32P] ATP at 5 mCi/ml diluted 10-fold in a solution containing 10 mM of unlabeled ATP, 100 mM of imidazole and 1 mM of DETAPAC (pH 6.6). The reaction was allowed to continue for 1 hour at ambient temperature and then stopped by 1 ml of the mixture chloroform:methanol: 1N hydrochloric acid (100:100:1, v/v/v), 170 μl of a buffer containing 10 mM of HEPES, 135 mM of NaCl, 1.5 mM of CaCl2, 0.5 mM of MgCl2 and 5.6 mM of glucose (pH 7.4) then 30 μl of EDTA 100 mM. The mixture was then vortexed, allowed to stand for 15 minutes at ambient temperature, then centrifuged (10,000 g, 5 minutes) at ambient temperature.
The organic phase (bottom) was collected and evaporated under nitrogen. The lipids were then taken up with 300 μl of the mixture ether:methanol (9:1, v/v) and deposited on a silica plate. The ceramides-1-phosphate were separated from the phosphatidic acid and triacylglycerols using the mixture chloroform:methanol: acetic acid (65:15:5, v/v/v) as migration solvent.
Exposure of the silica plate to an autoradiographic film (30 minutes, 80° C.) allowed visualization of the different ^32P-labeled lipids. The spots corresponding to the ceramides-1-phosphate and phosphatidic acid as well as the last 3 cm before the migration front (corresponding to the triacylglycerols) were delimited with a graphite crayon and scratched. The silica was recovered in counting pots, moistened with 200 μl of methanol, 200 μl of distilled water and 2 ml of scintillation liquid (Picofluor) for 2 hours before the addition of 8 ml of the scintillation liquid. The radioactivity emitted by the ^32P or the ^3H was then counted in each pot. The radioactivity emitted by the mother solution of (9,10-^3H)-triacylglycerol was also counted which allowed calculation of the reaction yield for each sample. […]

bovine retinal pericytes [2] = test: Apoptosis of bovine retinal pericytes cultured with AGE-methylglyoxal, annexin V / propidium iodine staining; type: cell-based
Experimental: The effects of AGE were tested on a uniform batch of cells (bovine retinal pericytes stemming from the same primary culture). When they were at confluence, the bovine retinal pericytes in primary culture were trypsinated. After having allowed them to become attached for 4 hours at 37° C., the medium and the cell debris that had not adhered to the matrix were eliminated and the culture medium (10% of FCS for bovine retinal pericytes) was added. An AGE solution (or its control) was added to the culture medium until reaching a concentration of […] to test the effects of AGE. The cultures were then continued for 1 or 2 passages with the agents, either for 7 or 15 days, respectively, for the bovine retinal pericytes.
Apoptosis was detected and quantified in pericytes cultured during two passages with 2 μM of AGE-methylglyoxal or its control using the technique based on detecting apoptotic cells with annexin V and detecting necrotic cells with propidium iodine.
The presence of phosphatidylserine (PS) on the external layer of the plasma membrane, which is characteristic of apoptotic cells, can be detected using annexin V labeled with fluorescein. This protein has a very strong affinity for PS. Staining is performed in the presence of an intercalating DNA dye, propidium iodine, similar to ethidium bromide to distinguish the apoptotic cells from possibly present necrotic cells which also fix annexin V. For this labeling the pericytes must be subconfluent (75% of confluence) and, thus, cultured for only about 12 days with AGE-methylglyoxal or BSA control.
The bovine retinal pericytes (dish 3.5 cm in diameter) were rinsed three times with PBS then incubated for 10 minutes in the dark with 500 μl of a HEPES buffer containing 10 μl of the fluorescein-labeled annexin V solution and 10 μl of the propidium iodine solution provided in the determination kit. The apoptotic cells as well as the necrotic cells fixed the annexin V and thus appeared green under the fluorescence microscope, but only the nuclei of the necrotic cells were dyed red by the propidium iodine. The percentages of necrotic cells and apoptotic cells were determined on 10 different fields, i.e., on a total of 300 to 800 cells.
Apoptosis was detected and quantified by labeling with annexin V and propidium iodine in bovine retinal pericytes during two passages with 2 μM of AGE-methylglyoxal or their control (see Material and Methods). […] Fluorescein-labeled annexin V stained green the plasma membranes of the apoptotic and necrotic cells, but only the necrotic cells whose cells had lost their integrity, were permeable to propidium iodide which stained their nuclei red. […] The cells were cultured during two passages (approximately 15 days) in the presence of 2 μM of AGE-methylglyoxal or control BSA. The results are expressed as % of apoptotic cells in the total cell population.

retina of diabetic rats = conditions: cited from earlier work; for loss / disappearance of pericytes in the retina of diabetic rats: literature
[3] = 10 μM, listed as Nα-acetyl-cysteine
[4] = 50 μM, listed as Nα-acetyl-cysteine

## S=C(S)OC1CC2CC1C1CCCC21 (centres unmarked) [D609]
Bovine retinal pericytes [1]; 9.4 μM
  % inhibition of the stimulated production of DAG induced by AGE-methylglyoxal: 80%
  % inhibition of the stimulated production of ceramides induced by AGE-methylglyoxal: 95%
Bovine retinal pericytes [1]; 30 μM
  % inhibition of the stimulated production of DAG induced by AGE-methylglyoxal: 65%
  % inhibition of the stimulated production of ceramides induced by AGE-methylglyoxal: complete inhibition
Bovine retinal pericytes [2]; 9.4 μM, two passages
  % inhibition of the apoptosis induced by AGE-methylglyoxal: 40%
Bovine retinal pericytes [2]; 30 μM, two passages
  % inhibition of the apoptosis induced by AGE-methylglyoxal: 47% and 50%

## CC(=O)N[C@@H](CS)C(=O)O [N-acetyl-L-cysteine, Nα-acetyl-L-cysteine]
Bovine retinal pericytes [1]; [3]
  % inhibition of the stimulated production of DAG induced by AGE-methylglyoxal: normalized
  % inhibition of the stimulated production of ceramides induced by AGE-methylglyoxal: normalized
Bovine retinal pericytes [1]; [4]
  % inhibition of the stimulated production of DAG induced by AGE-methylglyoxal: normalized
  % inhibition of the stimulated production of ceramides induced by AGE-methylglyoxal: normalized
Bovine retinal pericytes [2]; 10 μM, two passages
  % inhibition of the apoptosis induced by AGE-methylglyoxal: protected the pericytes against the apoptosis; also recorded: complete inhibition
Bovine retinal pericytes [2]; 10 μM, two passages, listed as Nα-acetyl-cysteine
  % inhibition of the apoptosis induced by AGE-methylglyoxal: normalized
Bovine retinal pericytes [2]; 50 μM, two passages
  % inhibition of the apoptosis induced by AGE-methylglyoxal: protected the pericytes against the apoptosis
Bovine retinal pericytes [2]; 50 μM, two passages, listed as Nα-acetyl-cysteine
  % inhibition of the apoptosis induced by AGE-methylglyoxal: normalized

## N=C(N)NN [aminoguanidine]
Retina of diabetic rats
  loss / disappearance of pericytes in the retina of diabetic rats: prevents
Retina of diabetic rats; streptozotocin diabetic rat model (Hammes et al., 1991)
  reduction of the number of acellular capillaries in the retina: 80%

## Nc1ncc(-c2ccc(O)cc2)nc1Cc1ccccc1 [coelenteramine]
Bovine retinal pericytes [2]; 2 μM, two passages
  % inhibition of the apoptosis induced by AGE-methylglyoxal: 60% and ~50%

## CNCCCN1c2ccccc2CCc2ccccc21 [desipramine, 10,11-dihydro-5-(3-(methylamino)propyl)-5H-dibenz(b,f)azepine]
Bovine retinal pericytes [1]; 0.1 μM
  % inhibition of the stimulated production of DAG induced by AGE-methylglyoxal: 17%
  % inhibition of the stimulated production of ceramides induced by AGE-methylglyoxal: 78%
Bovine retinal pericytes [1]; 0.3 μM
  % inhibition of the stimulated production of DAG induced by AGE-methylglyoxal: 13%
  % inhibition of the stimulated production of ceramides induced by AGE-methylglyoxal: 95%
Bovine retinal pericytes [1]; 1 μM (results not shown)
  baseline levels of the ceramides and DAG in the cells cultured with BSA control: affected
Bovine retinal pericytes [2]; 0.3 μM (b168 prints 0.3 mM), two passages
  % inhibition of the apoptosis induced by AGE-methylglyoxal: 50%
Bovine retinal pericytes [2]; 1 μM (results not shown)
  baseline apoptosis rate of the control cells: affected
Bovine retinal pericytes [2]; Bos taurus, 0.1 μM, two passages, read-out: % inhibition of the apoptosis induced by AGE-methylglyoxal
  inhibition at 0.1 µM: 35%
Bovine retinal pericytes [2]; Bos taurus, 0.3 μM (b168 prints 0.3 mM), two passages, read-out: % inhibition of the apoptosis induced by AGE-methylglyoxal
  inhibition at 0.3 µM: 35%

## O=c1c2ccccc2[se]n1-c1ccccc1 [ebselen]
Bovine retinal pericytes [2]; Bos taurus, 5 μM, two passages, read-out: % inhibition of the apoptosis induced by AGE-methylglyoxal
  inhibition at 5 µM: 94%
Bovine retinal pericytes [2]; Bos taurus, 10 μM, two passages, read-out: % inhibition of the apoptosis induced by AGE-methylglyoxal
  inhibition at 10 µM: 88%

## CCCC[C@@H](C)[C@@H](OC(=O)C[C@@H](CC(=O)O)C(=O)O)[C@H](C[C@@H](C)C[C@H](O)CCCC[C@@H](O)C[C@H](O)[C@H](C)N)OC(=O)C[C@@H](CC(=O)O)C(=O)O [fumonisin B1]
Bovine retinal pericytes [2]; 0.01 μM, two passages
  % inhibition of the apoptosis induced by AGE-methylglyoxal: 22%
Bovine retinal pericytes [2]; 0.01 μM, two passages, listed as Fumonisin B1, 0.01 µM
  % inhibition of the apoptosis induced by AGE-methylglyoxal: 20%
Bovine retinal pericytes [2]; 0.1 μM (results not shown)
  effect on the base apoptosis rate of cells cultured in BSA control: proapoptotic

## Cc1c(C)c2c(c(C)c1O)CCC(C)(C(=O)O)O2 (centres unmarked) [trilox]
Retina of diabetic rats
  loss / disappearance of pericytes in the retina of diabetic rats: prevent

## CC1=C(/C=C/C(C)=C/C=C/C(C)=C/C=C/C=C(C)/C=C/C=C(C)/C=C/C2=C(C)C[C@@H](O)CC2(C)C)C(C)(C)C[C@H](O)C1 [zeaxanthin]
Bovine retinal pericytes [2]; 2 μM, two passages
  % inhibition of the apoptosis induced by AGE-methylglyoxal: 50%

## z-DEVD-fmk
Bovine retinal pericytes [1]; 50 μM
  % inhibition of the stimulated production of DAG induced by AGE-methylglyoxal: not affected
  % inhibition of the stimulated production of ceramides induced by AGE-methylglyoxal: not affected
Bovine retinal pericytes [2]; 50 μM, two passages
  % inhibition of the apoptosis induced by AGE-methylglyoxal: almost total inhibition

## z-LEHD-fmk
Bovine retinal pericytes [1]; 50 μM
  % inhibition of the stimulated production of DAG induced by AGE-methylglyoxal: not affected
  % inhibition of the stimulated production of ceramides induced by AGE-methylglyoxal: not affected
Bovine retinal pericytes [2]; 50 μM, two passages
  % inhibition of the apoptosis induced by AGE-methylglyoxal: almost total inhibition

## z-VAD-fmk
Bovine retinal pericytes [1]; 50 μM
  % inhibition of the stimulated production of DAG induced by AGE-methylglyoxal: 100%
  % inhibition of the stimulated production of ceramides induced by AGE-methylglyoxal: 75%
Bovine retinal pericytes [2]; 50 μM, two passages
  % inhibition of the apoptosis induced by AGE-methylglyoxal: almost total inhibition

## z-VDVAD-fmk
Bovine retinal pericytes [2]; 50 μM, two passages
  % inhibition of the apoptosis induced by AGE-methylglyoxal: partial inhibition
Bovine retinal pericytes [2]; 50 μM, two passages, listed as z-VDVAD
  % inhibition of the apoptosis induced by AGE-methylglyoxal: partially inhibits
